Key:
[1] = target: MonCI (Streptomyces cinnamonensis); experiment: ITC; MicroCal ITC200, 25 °C, 100 mM phosphate pH 8.0; MonCI in the cell (60 μM with wild-type MonACPX 1.2 mM in the syringe; 100 μM with control ACP 1.0 mM in the syringe); 20 injections; one site model; performed twice
MonCI [2] = target: T1, MonCI (Streptomyces virginiae, UniProt Q846W9); experiment: HPLC of epoxide product; format: biochemical; settings: electron donor, 4 mM; FHB 160 µM, Tris pH 8.0, 30 °C, 6 h
T1 construct: gene monC1; N-terminal 6xHis-tag, pCold vector, E. coli BL21-AI; model covers residues 4-480 (chain A), last residue 496
T1 sequence (Q846W9 1-496): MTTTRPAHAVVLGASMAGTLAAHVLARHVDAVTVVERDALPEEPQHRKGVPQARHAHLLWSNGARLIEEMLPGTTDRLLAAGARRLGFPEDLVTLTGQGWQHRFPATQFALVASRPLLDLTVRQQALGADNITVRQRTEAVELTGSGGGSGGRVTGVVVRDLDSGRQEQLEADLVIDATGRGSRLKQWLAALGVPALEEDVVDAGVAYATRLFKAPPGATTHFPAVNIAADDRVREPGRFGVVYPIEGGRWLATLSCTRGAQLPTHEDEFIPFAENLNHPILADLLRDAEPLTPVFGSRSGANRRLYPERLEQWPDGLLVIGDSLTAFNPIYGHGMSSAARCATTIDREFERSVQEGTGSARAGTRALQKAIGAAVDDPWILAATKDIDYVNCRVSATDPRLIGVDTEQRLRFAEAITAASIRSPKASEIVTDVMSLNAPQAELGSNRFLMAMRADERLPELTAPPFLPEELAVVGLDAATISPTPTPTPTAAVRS

MonCI [3] = target: T1, MonCI; experiment: X-ray crystal structure, […] Å; format: binding; settings: noncovalently bound, co-purified; isoalloxazine ring in "in" conformation; pH 6.5-6.8 crystals
MonCI [4] = target: T1, MonCI; experiment: LC-MS of epoxide products; format: biochemical; settings: 160 µM FHB, 15 µM MonCI, 80 µM FAD, Fre, NADH or NADH regeneration (glucose dehydrogenase), 50 mM Tris pH 8.0, 300 mM NaCl, 30 °C, 6 h

Question: For wild-type apo-MonACPX (natural protein), which Kd [1] is on record?
Answer: 10.7 µM

Question: For `NC(=O)C1=CN([C@@H]2O[C@H](COP(=O)(O)OP(=O)(O)OC[C@H]3O[C@@H](n4cnc5c(N)ncnc54)[C@H](O)[C@@H]3O)[C@@H](O)[C@H]2O)C=CC1` [NADH], which “HPLC of epoxide product” value (MonCI [2]) is on record?
Answer: MonCI has similar preference for NADH and NADPH

Question: `Cc1cc2nc3c(=O)[nH]c(=O)nc-3n(C[C@H](O)[C@H](O)[C@H](O)COP(=O)(O)OP(=O)(O)OC[C@H]3O[C@@H](n4cnc5c(N)ncnc54)[C@H](O)[C@@H]3O)c2cc1C` [FAD] was tested. Which “X-ray crystal structure, 1.9 Å” value (MonCI [3]) did it give?
Answer: One FAD coenzyme and one chloride ion were found in each chain

Question: Which Kd [1] does the source give for apo-DEBS ACP2 (domain or fragment) here?
Answer: 49.8 µM

Question: With `CC(C)=CCCC(C)=CCCC(C)=CCOC(=O)c1ccc(O)cc1` [FHB, farnesyl 4-hydroxybenzoate] as the molecule, how does the “LC-MS of epoxide products” value (MonCI [4]) read?
Answer: MonCI can perform multiple epoxidations on the same substrate molecule

Reference: paper PMC10560226, “Triepoxide formation by a flavin-dependent monooxygenase in monensin biosynthesis” (Nature Communications, 2023)
